Test results taken from publication PMC9453727 (Cell Discovery, 2022).

Tests used:
in vitro = settings: PAMPA
[1] = in vivo, po; cited from earlier work
[2] = pH 5, permeability class PAMPA-GIT

Compound: NC(=O)N1c2ccccc2C=Cc2ccccc21 [Carbamazepine]
- Papp (in vitro; pH 5, Papp PAMPA-GIT, pH 5.0): 135 ×10⁻⁶ cm/s
- Papp (in vitro; [2]): > 20 ×10⁻⁶ cm/s
- Papp (in vitro; pH 6.2, Papp PAMPA-GIT, pH 6.2): 158 ×10⁻⁶ cm/s
- Papp (in vitro; pH 7.4, Papp PAMPA-GIT, pH 7.4): 160 ×10⁻⁶ cm/s

Compound: CC(C)(C)[C@H](NC(=O)C(F)(F)F)C(=O)N1C[C@H]2[C@@H]([C@H]1C(=O)N[C@H](C#N)C[C@@H]1CCNC1=O)C2(C)C [nirmatrelvir]
- half-life [1]: ~ 2 h

Compound: Cc1cc(=O)n(-c2ccccc2)n1C [Antipyrine]
- Papp (in vitro; [2]): < 1 ×10⁻⁶ cm/s
